Results taken from patent publication US4888283A, “Selective inhibitors of benzylaminoxidases with respect to other aminoxidases” (priority 1985, dated 1989).
Counter-ions that a name gives are not always drawn.

Assays:
[1] = test system: MAO (rat liver mitochondria); assay: Inhibition of monoaminoxidases (MAO), isotopic procedure with 14C-beta-phenylethylamine; format: biochemical; details: 30 minutes pre-incubation; 14C-beta-phenylethylamine 1.7 mM; mean ± s.e.
Protocol: The quantitative determination of monoaminoxidases (MAO's) is carried out by the same procedure as the determination of BAO's, but ^14 C-beta-phenylethylamine is employed at the final concentration of 1.7 mM.
(§1) Pure BAO obtained from swine plasma by the procedure disclosed by F. Buffoni and H. Blaschko (Proc. Roy. Soc. B 161, 153 (1964)); DAO from swine kidney, as obtained and purified by the Sigma (St. Louis, Md., USA, 0.25 U/mg); purified LAO from swine aorta obtained by the procedure disclosed by F. Buffoni and L. Raimondi (Agents and Actions, 11, 38 (1981)). Rat liver mitochondria obtained by the procedure disclosed by G. W. Schneider and G. H. Hogeboon (J. Biol. Chem., 183, 123 (1950)) were employed as the source of MAO.
(§2) IC50 (M)=The molar concentration of the inhibitor that inhibits 50% of the enzyme activity at a saturating concentration of the substrate. Said concentration is calculated from curves obtained by pre-incubation of the compound for 30 minutes (at 6 different concentrations) with the enzyme before adding the substrate and determining the enzymic rate.
(§3) The repetition of the experiments allows to obtain the average values of the IC50 (M) as well as the relative standard errors.

[2] = test system: Pure BAO obtained from swine plasma; assay: Compound as the substrate of BAO (production of H2O2); format: biochemical; set-up: key: the compound is the substrate; ns: the compound is not the substrate; details: 37° C., air
Protocol: (§4) The oxidation of the compound is estimated in all cases by measuring the production of H2 O2. Such operation is carried out within a temperature-controlled bath set at 37° C. and stirred, in the presence of air. The production-of H2 O2 is quantitatively determined by the method of H. P. Lehman, K. H. Schosinsky, M. F. Beeler (Clin. Chem., 20, 1564 (1974)).
as §1

DAO from swine kidney [3] = molecular target: T1, DAO from swine kidney (Sus scrofa, UniProt Q9TRC7); assay: Compound as the substrate of DAO (production of H2O2); format: biochemical; set-up: key: the compound is the substrate; ns: the compound is not the substrate; details: 37° C., air
T1 construct: DAO from swine kidney, as obtained and purified by the Sigma; purchased Sigma (St. Louis); host or cells: swine kidney
T1 sequence (Q9TRC7 25-755): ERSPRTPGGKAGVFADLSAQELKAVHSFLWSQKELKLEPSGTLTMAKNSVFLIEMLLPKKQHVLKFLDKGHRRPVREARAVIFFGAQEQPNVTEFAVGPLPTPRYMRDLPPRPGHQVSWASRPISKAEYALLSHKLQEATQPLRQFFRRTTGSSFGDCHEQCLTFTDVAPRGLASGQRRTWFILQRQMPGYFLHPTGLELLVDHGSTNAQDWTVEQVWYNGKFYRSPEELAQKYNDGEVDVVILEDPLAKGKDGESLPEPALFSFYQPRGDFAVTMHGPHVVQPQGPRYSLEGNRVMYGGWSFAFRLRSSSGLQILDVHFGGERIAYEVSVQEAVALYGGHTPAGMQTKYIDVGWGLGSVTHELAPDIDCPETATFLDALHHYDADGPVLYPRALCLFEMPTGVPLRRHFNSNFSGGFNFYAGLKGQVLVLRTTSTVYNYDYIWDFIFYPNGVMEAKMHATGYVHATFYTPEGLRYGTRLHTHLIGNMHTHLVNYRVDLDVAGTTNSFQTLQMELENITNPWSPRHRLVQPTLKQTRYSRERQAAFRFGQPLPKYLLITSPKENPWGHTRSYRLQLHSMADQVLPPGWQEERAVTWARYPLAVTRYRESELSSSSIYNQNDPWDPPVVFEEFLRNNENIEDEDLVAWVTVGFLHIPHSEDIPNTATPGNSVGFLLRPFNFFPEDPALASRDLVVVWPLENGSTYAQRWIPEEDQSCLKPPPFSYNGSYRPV
Protocol: as §4, §1

[4] = test system: MAO (rat liver mitochondria); assay: Compound as the substrate of MAO (production of H2O2); format: biochemical; set-up: key: the compound is the substrate; ns: the compound is not the substrate; details: 37° C., air
Protocol: as §4, §1

[5] = molecular target: Pure BAO obtained from swine plasma; assay: Inhibition of benzylaminoxidase (BAO), isotopic procedure with 14C-benzylamine; format: biochemical; details: for IC50: 30 minutes pre-incubation, 14C-benzylamine 1,7 mM (saturating), mean ± s.e.; for Activity as inhibitors of BAO (in words): compounds already known in the literature, prepared again
Protocol: The quantitative determination of benzylaminoxidases (BAO's) is carried out by the isotopic procedure disclosed by F. Buffoni and G. Ignesti (Biochem. J.; 145, 369 (1975)) employing ^14 C-benzylamine as the substrate at the final concentration of 1,7 mM.
as §1, §2, §3

DAO from swine kidney [6] = molecular target: T1, DAO from swine kidney; assay: Inhibition of diaminoxidase (DAO), isotopic method with 14C-putrescine; format: biochemical; details: 30 minutes pre-incubation; 14C-putrescine 1 mM; mean ± s.e.
Protocol: The quantitative determination of the diaminoxidases (DAO's) is performed by the isotopic method disclosed by J. Kusche, H. Richter, R. Hesterberg, J. Schmidt, W. Lorenz, (Agents and Actions, 3, 148-156 (1973)) employing ^14 C-putrescine as the substrate at the final concentration of 1 mM.
as §1, §2, §3

BAO's = details: background statement, cited from earlier work
[7] = test system: Pure BAO obtained from swine plasma; assay: Inhibition type on BAO (Lineweaver-Burk); format: biochemical; set-up: key: competitive inhibition; nc: not competitive inhibition; mixed inhibition; details: 1/v vs. 1/s, 5 substrate concentrations
Description: as §1
The inhibition type was evaluated by studying the effect of the compound on the enzymic rate (v) at 5 different concentrations of the substrate (s) and plotting the results by the classical procedure as 1/v vs. 1/s according to Lineweaver-Burk.

[8] = test system: Pure BAO obtained from swine plasma; assay: Reversibility of BAO inhibition by dialysis; format: biochemical; set-up: key: reversible inhibition; irreversible inhibition; pr: partially reversible inhibition; details: dialysis of the solution
Description: as §1
The reversibility of the effect was evaluated showing that the inhibition caused by a certain concentration of the inhibitor (for instance the IC50 value) would be reverted by dialysis of the solution.

[9] = molecular target: T2, purified LAO from swine aorta (Sus scrofa, UniProt P45845); assay: Inhibition of lysyloxidase (LAO), isotopic procedure with 3H-elastine; format: biochemical; details: 30 minutes pre-incubation; 3H-elastine 0.150 mg/ml
T2 construct: purified LAO from swine aorta; from tissue; host or cells: swine aorta, purified by the procedure of Buffoni and Raimondi (1981)
T2 sequence (P45845 1-249): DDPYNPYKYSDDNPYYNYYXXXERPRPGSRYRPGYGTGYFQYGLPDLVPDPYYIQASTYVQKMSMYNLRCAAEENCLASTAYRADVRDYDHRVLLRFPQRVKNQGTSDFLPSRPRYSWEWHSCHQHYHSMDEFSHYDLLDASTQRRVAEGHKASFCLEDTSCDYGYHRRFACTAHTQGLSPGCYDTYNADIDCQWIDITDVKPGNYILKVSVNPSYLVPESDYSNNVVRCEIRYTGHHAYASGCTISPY
Protocol: The quantitative determination of lysyloxidase (LAO) is carried out by the isotopic procedure of […]. Biochem., 77, 141 (1977)) employing as the substrate ^3 […] prepared as disclosed by […], and G. R. Martin (Proc. Natl. Acad. Sci. USA 61, 708 (1968)) and isolated as disclosed by […]. Smith (Biochemistry, 8, 2940 (1969)). […] Pure BAO obtained from swine plasma by the procedure disclosed by F. Buffoni and H. Blaschko (Proc. Roy. Soc. B 161, 153 (1964)); DAO from swine kidney, as obtained and purified by the Sigma (St. Louis, Md., USA, 0.25 U/mg); purified LAO from swine aorta obtained by the procedure disclosed by F. Buffoni and L. Raimondi (Agents and Actions, 11, 38 (1981)). Rat liver mitochondria obtained by the procedure disclosed by G. W. Schneider and […]. Biol. Chem., 183, 123 (1950)) were employed as the source of MAO. IC50 (M)=The molar concentration of the inhibitor that inhibits 50% of the enzyme activity at a saturating concentration of the substrate. Said concentration is calculated from curves obtained by pre-incubation of the compound for 30 minutes (at 6 different concentrations) with the enzyme before adding the substrate and determining the enzymic rate. The repetition of the experiments allows to obtain the average values of the IC50 (M) as well as the relative standard errors.

Row | SMILES | IC50 [1] | BAO: compound as the substrate [2] | DAO: compound as the substrate (DAO from swine kidney [3]) | MAO: compound as the substrate [4] | IC50 [5] | Activity as inhibitors of BAO (in words) [5] | IC50 (DAO from swine kidney [6]) | IC50 (BAO's; read-out: I50 on BAO's) | Kind of inhibition of BAO's (BAO's; high concentrations) | BAO: inhibition type [7] | BAO: reversibility of the inhibition [8] | IC50 [9]
1 | Cl.NCc1ccccc1O [Example 5, 2-hydroxybenzylamine hydrochloride] | > 1000 µM | s | s | ns | 1000 µM | active indeed, though at a low degree | 1000 µM | – | – | – | – | –
2 | Cl.NCc1ccccc1CO [Example 6, 2-hydroxymethylbenzylamine hydrochloride] | > 1000 µM | s | s | ns | 1000 µM | active indeed, though at a low degree | – | – | – | – | – | –
3 | N#CCCN [beta-aminopropionitrile] | – | – | – | – | – | – | – | > 10000 µM | irreversibly | – | – | –
4 | COc1cccc(OC)c1CN.Cl [Example 7, 2,6-di-methoxybenzylamine hydrochloride] | 190 µM | ns | s | s weak | 120 µM | active indeed, though at a low degree | 5600 ± 0.3 µM | – | – | m | r | –
5 | COCc1cccc(COC)c1CN.Cl [Example 10, 2,6-bis(methoxymethyl)benzylamine hydrochloride] | > 1000 µM | ns | s | ns | – | – | – | – | – | m | pr | –
6 | CCOc1cccc(OCC)c1CN.Cl [Example 1, 2,6-diethoxybenzylamine hydrochloride] | 6400 ± 0.5 µM | ns | s | ns | 0.18 µM | – | 12500 ± 1 µM | – | – | m | pr | –
7 | COCOc1cccc(OCOC)c1CN.Cl [Example 9, 2,6-bis(methoxymethoxy)benzylamine hydrochloride] | 22000 ± 60 µM | s | s | ns | 0.95 µM | – | > 10000 µM | – | – | m | r | > 1000 µM
8 | CCCCOc1cccc(OCCCC)c1CN.Cl [Example 4, 2,6-di(n-butoxy)benzylamine hydrochloride] | > 1000 µM | ns | s | ns | 0.14 µM | – | – | – | – | nc | pr | –
9 | CC(C)Oc1cccc(OC(C)C)c1CN.Cl [Example 3, 2,6-diisopropoxybenzylamine hydrochloride] | > 1000 µM | s weak | s weak | s weak | > 1000 µM | – | – | – | – | – | – | –
10 | CCCOc1cccc(OCCC)c1CN.Cl [Example 2, 2,6-di(n-propoxy)benzylamine hydrochloride] | > 1000 µM | ns | s weak | s | – | – | – | – | – | m | pr | –
11 | CCCc1cccc(CCC)c1CN.Cl [Example 12, 2,6-di-n-propylbenzylamine hydrochloride] | 1000 µM | ns | s weak | s | – | – | 1000 µM | – | – | nc | r | 1000 µM
12 | NCc1c(O)cccc1O [Example 8, 2,6-dihydroxybenzylamine hydrochloride] | > 1000 µM | – | – | – | 1000 µM | – | – | – | – | – | – | –
13 | Cl.NCc1c(OCCO)cccc1OCCO [Example 13, 2,6-bis(hydroxyethoxy)benzylamine hydrochloride] | > 1000 µM | ns | s | ns | 2.6 µM | – | – | – | – | m | pr | –
14 | CCc1cccc(CC)c1CN.Cl [Example 11, 2,6-diethylbenzylamine hydrochloride] | > 1000 µM | ns | s | s | – | – | – | – | – | nc | r | –
